Target: T1, LTD4 receptor ([3H-LTD4] binding to guinea-pig lung membranes) (Cavia porcellus, UniProt Q2NNR5)
T1 construct: guinea-pig lung membranes; from tissue; host or cells: guinea-pig lung membranes
T1 sequence (Q2NNR5 1-340): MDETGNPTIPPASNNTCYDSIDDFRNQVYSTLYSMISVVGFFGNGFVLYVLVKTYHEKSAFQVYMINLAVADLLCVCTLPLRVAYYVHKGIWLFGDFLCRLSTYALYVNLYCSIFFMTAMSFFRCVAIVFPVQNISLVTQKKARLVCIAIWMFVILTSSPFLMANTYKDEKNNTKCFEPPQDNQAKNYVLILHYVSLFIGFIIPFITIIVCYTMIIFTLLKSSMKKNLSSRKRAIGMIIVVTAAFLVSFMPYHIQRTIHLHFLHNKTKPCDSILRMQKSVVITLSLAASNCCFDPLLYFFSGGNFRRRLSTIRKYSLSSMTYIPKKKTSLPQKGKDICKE
Test: [3H]-LTD4 binding assay
Conditions: displacement of 0.8 nM 3H-LTD4 from guinea-pig lung membranes, 15 minutes at 20° C., pH 7.4; Cheng and Prusoff correction of IC50; read-out: pKi [3H-LTD4] (converted)
Experimental: To evaluate the pharmacological properties the receptor affinity of the compounds were determined by measuring its ability to displace [^3 H-LTD4 ] binding to guinea-pig lung membranes.
Test method: [^3 H]-LTD4 BINDING ASSAY
Increasing concentrations (between 10^-8 and 10^-5 M) of compounds of general formula I were incubated with 0.8 nM^3 H-LTD4 and guinea-pig lung membranes (100-150 μg protein) for 15 minutes at 20° C. in an assay buffer of 10 mM L-cysteine and 1% polypep in 50 mM Tris HCl at pH 7.4. Incubations (total volume 0.25 ml) were terminated by addition of ice-cold Tris HCl (pH 7.4) and rapidly filtered through Whatman GF/C filters which were washed twice with ice-cold buffer. All points were determined in triplicate.
The counts (dpm) bound to each filter were determined by liquid scintillation spectrometry. The amount bound in the presence of each concentration of test compound was compared to the amount of binding in the absence of test compound […] and to the amount bound in the presence of 2 μm LTD4. […]
Where 0.8 nM is the dissociation constant for ^3 H-LTD4 under these conditions and [^3 H-LTD4 ] is the precise concentration (in nM) employed in the assay (also determined by liquid scintillation counting).

Question: Which Ki does the source give for `O=C(O)CC[C@@H](/C=C\Cc1ccc(OCCCCOc2ccccc2)cc1)Sc1ccc(C(=O)O)cc1` [Example No. 4, Z-[4S]-4-(4-Carboxyphenylthio)-7-[4-(4-phenoxybutoxy)-phenyl]-5-heptenoic acid] here?
Answer: Its Ki is 31.6 nM.

Source: US5246966A, “Substituted alkenoic acid and its derivatives” (Bayer Aktiengesellschaft, priority 1991, dated 1993)
